# Source: publication PMC8125951, “Exploring the 2′-Hydroxy-Chalcone Framework for the Development of Dual Antioxidant and Soybean Lipoxygenase Inhibitory Agents” (Molecules, 2021)
# Key:
# [1] = Interaction with the stable free radical DPPH (reducing activity)
# Method: The first assay refers to the interaction of the compounds with the stable free radical DPPH and it is a fast, simple, cost-effective, and widely used method, where the DPPH radical reacts directly with the antioxidant and is decolorized. This interaction indicates their radical scavenging ability in an iron-free system. The scavenging effect of the synthesized analogues on the DPPH radical was evaluated according to the methods of Hadjipavlou et al..
# To an ethanolic solution of DPPH (100 μM) in absolute ethanol, an equal volume of the compounds dissolved in DMSO was added (100 μM). […]
# [2] = Inhibition of linoleic acid lipid peroxidation induced by AAPH
# Text: The second technique is based on the ability of the compounds to inhibit lipid peroxidation of linoleic acid induced by 2,2′-Azobis(2-amidinopropane) dihydrochloride (AAPH) radical (Table 2). AAPH-induced linoleic acid oxidation has been developed as a quick and reliable method for measuring the antioxidant activity. The thermal free radical producer (AAPH) generates free radicals in the solution which cause the oxidation of linoleic acid, and the method is a measure of how effective antioxidants protect against lipid peroxidation in vitro. Oxidation of linoleic acid by AAPH is followed by UV spectrophotometry in a highly diluted sample [61].
# 2,2′-Azobis(2-amidinopropane) dihydrochloride (AAPH) was used as a free radical initiator. Ten microliters of the 16 mM linoleic acid sodium salt solution was added to the UV cuvette containing 0.93 mL of 0.05 M phosphate buffer, pH 7.4 prethermostated at 37 °C. The oxidation reaction was initiated at 37 °C under air by the addition of 50 μL of 40 mM AAPH solution. Oxidation was carried out in the presence of the synthesized compounds (10 μL, from a stock solution of 10 mM in DMSO). In the assay without antioxidant, lipid oxidation was measured in the presence of the same level of DMSO.
# [3] = Competition of the tested compounds with DMSO for hydroxyl radicals; settings: 100 μM
# Text: Among the reactive oxygen species (ROS), the hydroxyl (^•OH) free radical is possibly the most toxic, reacting with several biological important molecules such as DNA, lipids, or carbohydrates. Polyunsaturated fatty acids are particularly vulnerable by free radicals. Iron released from damaged cells is more likely to be readily available to catalyze the generation of ^•OH radicals. Thus, we tried to test the ability of our compounds to scavenge hydroxyl radicals determining the competition of selected chalcones and aurones with DMSO for hydroxyl radicals. Hydroxyl radicals were generated using the Fe^3+/ascorbic acid system and expressed as a percentage inhibition of formaldehyde production in the presence of each compound at 100 μM.
# The hydroxyl radicals generated by the Fe^3+ / ascorbic acid system, were detected by the determination of formaldehyde produced from the oxidation of DMSO (Table 2). A negative control using the same % DMSO was used. Trolox was used as reference compound [75].
# [4] = ABTS radical cation decolorization assay; settings: 100 μM
# Method: The ABTS radical cation decolorization assay was used as another antioxidant activity estimation protocol (Table 2). Oxidation of ABTS with potassium persulfate generates directly the radical with no involvement of an intermediate radical, which is then reduced upon adding electron-donating antioxidants.
# In order to produce the ABTS radical cation (ABTS^+·), ABTS stock solution in water (7 mM) was mixed with potassium persulfate (2.45 mM) and left in the dark at room temperature for 12–16 h before use. Our published experimental technique was used (1). The results are recorded after 1 min of the mixing solutions at 734 nm. The results were compared to the appropriate standard inhibitor Trolox.
# soybean lipoxygenase = biological target: T1, soybean lipoxygenase (Glycine max, UniProt P08170); test: Soybean LOX inhibition study in vitro; format: biochemical; settings: for inhibition at 100 µM: read-out: Inhibition of Soybean Lipoxygenase 100 μM (%); for IC50: read-out: Inhibition of Soybean Lipoxygenase IC50
# T1 sequence (P08170 1-839): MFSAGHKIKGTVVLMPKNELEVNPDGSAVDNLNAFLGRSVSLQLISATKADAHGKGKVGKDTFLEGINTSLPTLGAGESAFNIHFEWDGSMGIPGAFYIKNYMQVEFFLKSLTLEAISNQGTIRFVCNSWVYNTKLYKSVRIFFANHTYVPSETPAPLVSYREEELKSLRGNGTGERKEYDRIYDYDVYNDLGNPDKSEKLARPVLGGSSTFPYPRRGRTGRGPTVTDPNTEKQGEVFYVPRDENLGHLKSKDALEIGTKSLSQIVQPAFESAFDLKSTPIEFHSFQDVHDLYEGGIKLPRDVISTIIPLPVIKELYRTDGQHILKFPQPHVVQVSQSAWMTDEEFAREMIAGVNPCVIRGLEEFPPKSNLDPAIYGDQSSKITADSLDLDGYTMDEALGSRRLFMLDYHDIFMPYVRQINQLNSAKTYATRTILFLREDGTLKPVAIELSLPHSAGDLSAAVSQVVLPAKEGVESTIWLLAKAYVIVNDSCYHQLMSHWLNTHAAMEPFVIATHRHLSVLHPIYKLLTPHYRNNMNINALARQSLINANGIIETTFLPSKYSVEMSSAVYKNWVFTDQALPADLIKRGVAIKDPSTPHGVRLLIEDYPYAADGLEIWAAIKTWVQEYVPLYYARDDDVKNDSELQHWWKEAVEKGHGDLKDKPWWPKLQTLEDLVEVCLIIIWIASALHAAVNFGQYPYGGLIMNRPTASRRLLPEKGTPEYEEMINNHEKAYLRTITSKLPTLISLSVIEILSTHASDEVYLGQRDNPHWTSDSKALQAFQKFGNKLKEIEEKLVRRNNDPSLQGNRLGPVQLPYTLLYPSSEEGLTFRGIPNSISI
# Method: Furthermore, as an indication of their anti-inflammatory activity, all the molecules were tested as inhibitors of soybean lipoxygenase (LOX). The enzyme lipoxygenase catalyzes the first two steps in the metabolism of arachidonic acid, which is cleaved from membrane phospholipids to leukotrienes (LTB4). LTB4 generation is considered to be important in the pathogenesis of neutrophil-mediated inflammatory diseases. For this study, the UV absorbance-based soybean LOX assay was used, which is a plant enzyme with satisfactory homology with the human 5-LOX [61, 62, 63, 64, 65, 66].
# The tested compounds dissolved in DMSO were incubated at room temperature with sodium linoleate (0.1 mL) and 0.2 mL of enzyme solution ([…] in saline) in Tris buffer pH 9.
inhibition at 100 µM (soybean lipoxygenase; at 100 μM),Inhibition of Soybean Lipoxygenase 100 μM (%) (soybean lipoxygenase; at 100 μM),IC50 (soybean lipoxygenase),Compound,"Interaction with the Free Radical DPPH (%) ([1]; 100 μM, 20 min)","Interaction with the Free Radical DPPH (%) ([1]; 100 μM, 60 min)",Inhibition of Lipid Peroxidation of Linoleic Acid Induced by AAPH Radical (%) ([2]; 100 μM),HO· (%) competition with DMSO for hydroxyl radicals [3],ABTS+· % [4],Interaction with the Free Radical DPPH (%) ([1]; 0 min),Interaction with the Free Radical DPPH (%) ([1]; 3 min),Interaction with the Free Radical DPPH (%) ([1]; 6 min),Interaction with the Free Radical DPPH (%) ([1]; 9 min),Inhibition of Lipid Peroxidation of Linoleic Acid Induced by AAPH Radical (%) ([2]; 0 min),Inhibition of Lipid Peroxidation of Linoleic Acid Induced by AAPH Radical (%) ([2]; 3 min),Inhibition of Lipid Peroxidation of Linoleic Acid Induced by AAPH Radical (%) ([2]; 6 min),Inhibition of Lipid Peroxidation of Linoleic Acid Induced by AAPH Radical (%) ([2]; 9 min)
13%,,,"COc1cc(OC)c(OC)cc1/C=C1\Oc2ccccc2C1=O [Compound 6b, 2′,4′,5′-trimethoxy-aurone]",no interaction and did not show any DPPH radical scavenging ability and no,no,29.4%,no,64%,,,,,,,,
40.2%,,,"COCOc1ccc(C(=O)/C=C/c2ccc(OCOC)c(OCOC)c2)c(O)c1 [Compound 3a, 2′-hydroxy-4′,3,4-methoxymethoxy-chalcone]",,21.6%,11.4%,40%,93%,,,,,,,,
24.5%,,,"O=C1/C(=C/c2ccc(O)c(O)c2)Oc2cc(O)ccc21 [Compound 7a, 3′,4′,6-Trihydroxy-Aurone]",89%,91.2%,53.2%,inactive and no,71%,92.3%,94.4%,94.9%,94.9%,,,,
,no,,"O=C1/C(=C/c2cc(O)c(O)cc2O)Oc2ccccc21 [Compound 7b, 2′,4′,5′-Trihydroxy-Aurone]",100%,100%,,77%,no,98.2%,99.3%,99.5%,99.8%,,,,
24.4%,,,"COCOc1ccc2c(c1)O/C(=C\c1ccc(OCOC)c(OCOC)c1)C2=O [Compound 6a, 3′,4′,6-tri(methoxymethoxy)-aurone]",no interaction and did not show any DPPH radical scavenging ability and no,no,18.5%,43%,86%,,,,,,,,
39.3%,,,"O=C(/C=C/c1ccc(O)c(O)c1)c1ccc(O)cc1O [Compound 4a, 2′,3,4,4′-tetrahydroxy-chalcone]",95.7%,95.3%,24.4%,68%,86%,95.4%,95.4%,94.9%,95.4%,,,,
,,70 µM,"O=C(/C=C/c1ccc(O)c(O)c1)c1cc(Br)ccc1O [Compound 4b, 5′-bromo-2′,3,4-trihydroxy-chalcone]",82.4%,82.0%,82.3%,100%,inactive and no,,,,,81.8%,82.6%,82.5%,81.5%
,,75 µM,"COc1cc(OC)c(OC)cc1/C=C/C(=O)c1ccccc1O [Compound 3b, 2′-hydroxy-2,4,5-trimethoxy-chalcone]",no,no,67.3%,no,,,,,,,,,
,,,"Cc1c(C)c2c(c(C)c1O)CCC(C)(C(=O)O)O2 (stereo not shown) [Trolox, reference compound]",93.0%,93.6%,92.0%,82%,93%,,,,,,,,
,,45 µM,"COCOc1ccc(C(=O)/C=C/c2cc(OC)c(OC)cc2OC)c(O)c1 [Compound 3c, 2′-hydroxy-4′-methoxymethoxy-2,4,5-trimethoxy-chalcone]",no,2.3%,39.4%,,,,,,,,,,
